Patent US20240376084A1, “INHIBITORS OF ALPHA-HEMOLYSIN OF STAPHYLOCOCCUS AUREUS” (Helmholtz-Zentrum Fur Infektionsforschung GmbH, priority 2021, published 2024)

Legend:
[1] = target: hemolysin alpha from Staphylococcus aureus (Staphylococcus aureus, UniProt P09616); test: cell-based
[2] = target: S. aureus Alpha hemolysin (Staphylococcus aureus, UniProt P09616); test: cell-based
Sequence of S. aureus Alpha hemolysin (P09616 27-319 limits assumed): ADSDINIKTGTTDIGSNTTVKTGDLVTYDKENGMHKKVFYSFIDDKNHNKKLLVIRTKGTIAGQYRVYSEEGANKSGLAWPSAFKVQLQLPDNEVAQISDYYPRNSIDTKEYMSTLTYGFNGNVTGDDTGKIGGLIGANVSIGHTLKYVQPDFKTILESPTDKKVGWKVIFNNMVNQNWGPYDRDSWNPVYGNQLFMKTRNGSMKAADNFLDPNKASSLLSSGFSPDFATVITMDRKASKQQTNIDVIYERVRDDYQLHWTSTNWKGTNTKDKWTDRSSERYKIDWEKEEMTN

Sequence of hemolysin alpha from Staphylococcus aureus (P09616 27-319 limits assumed): as above

SMILES | EC50 [1] [nM] | EC50 ([2]; A549-LDH Assay activity) [nM] | IC50 [1] [nM] | EC50 ([2]; LDH Assay EC50) [nM]
COc1ccc(-c2ccc(NS(=O)(=O)c3cc4[nH]c(=O)c(=O)[nH]c4cc3C)cc2C(F)(F)F)cc1F [Compound 345, N-[4-(3-fluoro-4-methoxy-phenyl)-3-(trifluoromethyl)phenyl]-7-methyl-2,3-dioxo-1,4-dihydroquinoxaline-6-sulfonamide] | < 30 | < 30 |  | 
CN(C)c1cccc(-c2ccc(NS(=O)(=O)c3cc4[nH]c(=O)c(=O)[nH]c4cc3F)cc2Cl)c1 [Compound 34, N-(2-chloro-3′-(dimethylamino)-[1,1′-biphenyl]-4-yl)-7-fluoro-2,3-dioxo-1,2,3,4-tetrahydroquinoxaline-6-sulfonamide] |  | 100 to 1000 | < 30 | 
O=c1[nH]c2cc(F)c(S(=O)(=O)Nc3ccc(C4CCCCC4)cc3)cc2[nH]c1=O [Compound 71, N-(4-cyclohexylphenyl)-7-fluoro-2,3-dioxo-1,2,3,4-tetrahydroquinoxaline-6-sulfonamide] |  | 100 to 1000 | 100 to 1000 | 
Cc1cc2[nH]c(=O)c(=O)[nH]c2cc1S(=O)(=O)Nc1ccc(C(F)(F)F)c(Cl)c1 [Compound 56, N-(3-chloro-4-(trifluoromethyl)phenyl)-7-methyl-2,3-dioxo-1,2,3,4-tetrahydroquinoxaline-6-sulfonamide] |  | 1000 to 6000 | 30 to 100 | 
Cc1ccc(-c2c(C)cc(NS(=O)(=O)c3cc4[nH]c(=O)c(=O)[nH]c4cc3C)cc2C)s1 [Compound 70, N-(3,5-dimethyl-4-(5-methylthiophen-2-yl)phenyl)-7-methyl-2,3-dioxo-1,2,3,4-tetrahydroquinoxaline-6-sulfonamide] |  | 100 to 1000 | 30 to 100 | 
O=c1[nH]c2cc(Cl)c(S(=O)(=O)Nc3ccc(-c4ccc(F)cc4)c(Cl)c3)cc2[nH]c1=O [Compound 12, 7-chloro-N-(2-chloro-4′-fluoro-[1,1′-biphenyl]-4-yl)-2,3-dioxo-1,2,3,4-tetrahydroquinoxaline-6-sulfonamide] |  | 100 to 1000 | < 30 | 
Cc1cc2[nH]c(=O)c(=O)[nH]c2cc1S(=O)(=O)Nc1ccc(-c2cc(CO)ccc2F)c(Cl)c1 [Compound 282, N-[3-chloro-4-[2-fluoro-5-(hydroxymethyl)phenyl]phenyl]-7-methyl-2,3-dioxo-1,4-dihydroquinoxaline-6-sulfonamide] | 30 to 100 | 100 to 1000 |  | 
Cc1cc2[nH]c(=O)c(=O)[nH]c2cc1S(=O)(=O)Nc1ccc(-c2ccc(F)c(C(N)=O)c2)c(C(F)(F)F)c1 [Compound 368, 2-fluoro-5-[4-[(7-methyl-2,3-dioxo-1,4-dihydroquinoxalin-6-yl)sulfonylamino]-2-(trifluoromethyl)phenyl]benzamide] | 30 to 100 | 100 to 1000 |  | 
Cc1cc2[nH]c(=O)c(=O)[nH]c2cc1S(=O)(=O)Nc1ccc(-c2ccc3c(c2)OCO3)c(Cl)c1 [Compound 247, N-[4-(1,3-benzodioxol-5-yl)-3-chloro-phenyl]-7-methyl-2,3-dioxo-1,4-dihydroquinoxaline-6-sulfonamide] | < 30 | 30 to 100 |  | 
Cc1cc2[nH]c(=O)c(=O)[nH]c2cc1S(=O)(=O)Nc1ccc(-c2ccc(Cl)c(Cl)c2)c(Cl)c1 [Compound 257, N-[3-chloro-4-(3,4-dichlorophenyl)phenyl]-7-methyl-2,3-dioxo-1,4-dihydroquinoxaline-6-sulfonamide] | < 30 | 30 to 100 |  | 
Cc1cc2[nH]c(=O)c(=O)[nH]c2cc1S(=O)(=O)Nc1ccc(C2CCCCC2)cc1 [Compound 86, N-(4-cyclohexylphenyl)-7-methyl-2,3-dioxo-1,2,3,4-tetrahydroquinoxaline-6-sulfonamide] |  | 100 to 1000 | 100 to 1000 | 
Cc1cc2[nH]c(=O)c(=O)[nH]c2cc1S(=O)(=O)Nc1ccc(-c2ccc3cn[nH]c3c2)c(Cl)c1 [Compound 370, N-[3-chloro-4-(1H-indazol-6-yl)phenyl]-7-methyl-2,3-dioxo-1,4-dihydroquinoxaline-6-sulfonamide] | < 30 | < 30 |  | 
Cc1cc2[nH]c(=O)c(=O)[nH]c2cc1S(=O)(=O)Nc1ccc(-c2ccc3c(c2)CCCN3)c(Cl)c1 [Compound 343, N-[3-chloro-4-(1,2,3,4-tetrahydroquinolin-6-yl)phenyl]-7-methyl-2,3-dioxo-1,4-dihydroquinoxaline-6-sulfonamide] | < 30 | 100 to 1000 |  | 
O=c1[nH]c2cc(Cl)c(S(=O)(=O)Nc3ccc4c(c3)CCCC4)cc2[nH]c1=O [Compound 174, 7-chloro-2,3-dioxo-N-(5,6,7,8-tetrahydronaphthalen-2-yl)-1,2,3,4-tetrahydroquinoxaline-6-sulfonamide] |  | 30 to 100 | 100 to 1000 | 
Cc1cc2[nH]c(=O)c(=O)[nH]c2cc1S(=O)(=O)Nc1ccc(C(C)(C)C)cc1 [Compound 83, N-(4-(tert-butyl)phenyl)-7-methyl-2,3-dioxo-1,2,3,4-tetrahydroquinoxaline-6-sulfonamide] |  | 30 to 100 | 100 to 1000 | 
Cc1cc2[nH]c(=O)c(=O)[nH]c2cc1S(=O)(=O)Nc1ccc2c(c1)CCC2 [Compound 79, N-(2,3-dihydro-1H-inden-5-yl)-7-methyl-2,3-dioxo-1,2,3,4-tetrahydroquinoxaline-6-sulfonamide] |  | 30 to 100 | 100 to 1000 | 

SMILES | EC50 [1] [nM] | EC50 ([2]; A549-LDH Assay activity) [nM] | IC50 [1] [nM] | EC50 ([2]; LDH Assay EC50) [nM]
Cc1cc2[nH]c(=O)c(=O)[nH]c2cc1S(=O)(=O)Nc1ccc(-c2ccn3ccnc3c2)c(Cl)c1 [Compound 336, N-(3-chloro-4-imidazo[1,2-a]pyridin-7-yl-phenyl)-7-methyl-2,3-dioxo-1,4-dihydroquinoxaline-6-sulfonamide] | 30 to 100 | 100 to 1000 |  | 
Cc1cc2[nH]c(=O)c(=O)[nH]c2cc1S(=O)(=O)Nc1cnc(-n2nccn2)c(Cl)c1 [Compound 385, N-[5-chloro-6-(triazol-2-yl)-3-pyridyl]-7-methyl-2,3-dioxo-1,4-dihydroquinoxaline-6-sulfonamide] | 1000 to 3500 | 100 to 1000 |  | 
Cc1cc2[nH]c(=O)c(=O)[nH]c2cc1S(=O)(=O)Nc1ccc(-c2ccnc(Cl)c2)c(Cl)c1 [Compound 30, N-(3-chloro-4-(2-chloropyridin-4-yl)phenyl)-7-methyl-2,3-dioxo-1,2,3,4-tetrahydroquinoxaline-6-sulfonamide] |  | 30 to 100 | < 30 | 
Cc1cc2[nH]c(=O)c(=O)[nH]c2cc1S(=O)(=O)Nc1cc(C)c(-c2ccccc2Cl)c(C)c1 [Compound 104, N-(2′-chloro-2,6-dimethyl-[1,1′-biphenyl]-4-yl)-7-methyl-2,3-dioxo-1,2,3,4-tetrahydroquinoxaline-6-sulfonamide] |  | 100 to 1000 | 100 to 1000 | 
Cc1cc2[nH]c(=O)c(=O)[nH]c2cc1S(=O)(=O)Nc1ccc(C2CCC2)cc1 [Compound 362, N-(4-cyclobutylphenyl)-7-methyl-2,3-dioxo-1,4-dihydroquinoxaline-6-sulfonamide] | 100 to 1000 | 30 to 100 |  | 
Cc1cc2[nH]c(=O)c(=O)[nH]c2cc1S(=O)(=O)Nc1ccc(-c2ccccc2)cc1 [Compound 61, N-([1,1′-biphenyl]-4-yl)-7-methyl-2,3-dioxo-1,2,3,4-tetrahydroquinoxaline-6-sulfonamide] |  | 30 to 100 | < 30 | 
CCc1ccccc1-c1c(C)cc(NS(=O)(=O)c2cc3[nH]c(=O)c(=O)[nH]c3cc2C)cc1C [Compound 134, N-(2′-ethyl-2,6-dimethyl-[1,1′-biphenyl]-4-yl)-7-methyl-2,3-dioxo-1,2,3,4-tetrahydroquinoxaline-6-sulfonamide] |  | 30 to 100 | 100 to 1000 | 
Cc1cc2[nH]c(=O)c(=O)[nH]c2cc1S(=O)(=O)Nc1ccc(-c2ccc3cc[nH]c3c2)c(C(F)(F)F)c1 [Compound 369, N-[4-(1H-indol-6-yl)-3-(trifluoromethyl)phenyl]-7-methyl-2,3-dioxo-1,4-dihydroquinoxaline-6-sulfonamide] | < 30 | 30 to 100 |  | 
O=c1[nH]c2ccc(S(=O)(=O)Nc3ccc(C4CC4)cc3)cc2[nH]c1=O [drawing 470 (R^2 = H), reference compound] | 423 |  |  | 80
CC(C)=Cc1ccc(NS(=O)(=O)c2cc3[nH]c(=O)c(=O)[nH]c3cc2C)cc1Cl [Compound 296, N-[3-chloro-4-(2-methylprop-1-enyl)phenyl]-7-methyl-2,3-dioxo-1,4-dihydroquinoxaline-6-sulfonamide] | 30 to 100 | 30 to 100 |  | 
COc1ccc(-c2ncc(NS(=O)(=O)c3cc4[nH]c(=O)c(=O)[nH]c4cc3C)cc2Cl)cc1F [Compound 303, N-[5-chloro-6-(3-fluoro-4-methoxy-phenyl)-3-pyridyl]-7-methyl-2,3-dioxo-1,4-dihydroquinoxaline-6-sulfonamide] | 100 to 1000 | 100 to 1000 |  | 
CC(C)c1cc2[nH]c(=O)c(=O)[nH]c2cc1S(=O)(=O)Nc1ccc(-c2cccc(N(C)C)c2)c(Cl)c1 [Compound 109, N-(2-chloro-3′-(dimethylamino)-[1,1′-biphenyl]-4-yl)-7-isopropyl-2,3-dioxo-1,2,3,4-tetrahydroquinoxaline-6-sulfonamide] |  | 100 to 1000 | 100 to 1000 | 
Cc1cc2[nH]c(=O)c(=O)[nH]c2cc1S(=O)(=O)Nc1ccc(-c2cccc(N(C)C)c2)c(Cl)c1 [Compound 4, N-(2-chloro-3′-(dimethylamino)-[1,1′-biphenyl]-4-yl)-7-methyl-2,3-dioxo-1,2,3,4-tetrahydroquinoxaline-6-sulfonamide] |  | 30 to 100 | < 30 | 
Cc1cc2[nH]c(=O)c(=O)[nH]c2cc1S(=O)(=O)Nc1ccc(-c2ccc(S(C)(=O)=O)cc2)c(Cl)c1 [Compound 398, N-[3-chloro-4-(4-methylsulfonylphenyl)phenyl]-7-methyl-2,3-dioxo-1,4-dihydroquinoxaline-6-sulfonamide] | 1000 to 3500 | 1000 to 6000 |  | 
CCc1ccc(NS(=O)(=O)c2cc3[nH]c(=O)c(=O)[nH]c3cc2C)cc1 [Compound 92, N-(4-ethylphenyl)-7-methyl-2,3-dioxo-1,2,3,4-tetrahydroquinoxaline-6-sulfonamide] |  | < 30 | < 30 | 
